{"source": "patent US20240024262A1", "about": "“USE OF VALERIC ACID IN PREPARATION OF DRUG FOR PREVENTING AND TREATING DIABETES” (Harbin Medical University, priority 2022, published 2024)", "key": {"[1]": {"test_system": "mouse pancreatic tissues (islet β cells)", "test": "Histopathology of pancreas of high-fat fed mice (HE, ERK immunohistochemistry, immunofluorescence)", "assay_type": "in vivo", "procedure": "In order to detect a blood glucose homeostasis level and an insulin function of each mouse, an oral glucose tolerance test (OGTT) for the mice was performed. At the night before this test, test mice were fasted but not water for 16 h and transferred from a feeding room to a clean experimental operation room, so that the animals could adapt to the environment. Before the OGTT started, a weight of each mouse was accurately weighed, and an injection dose of glucose was calculated according to 2 mg/g body weight, and a tail was cut for collecting blood at 0 minute, 15 minutes, 30 minutes, 60 minutes and 120 minutes after intragastric injection of the glucose. A first drop of blood after tail cutting was discarded, and then concentrations of blood glucose (mmol/L) were continuously detected using an Accu-Chek blood glucose meter (Roche diagnosis, USA). The test mice were fasted for 12 h at the night before sampling, and were anesthetized by intraperitoneal injection of a 10% chloral hydrate-containing solution. After the intraperitoneal cavities of the mice were cut, blood was collected by apical blood collection, and the test mice were killed. After being collected, blood samples were left for still standing for 2 h at the room temperature, and then centrifuged for 15 min at […], serum at the upper layer was sucked, and then biochemical detection was performed immediately. After the blood samples were collected, pancreatic tissues of the mice were immediately cut off so as to prevent pancreatic dissolution, and heads and tails of pancreas were separately stored. Then other tissues of the mice were extracted. Pictures of tissue morphologies of various parts of the mice were photographed and stored, and weights of tissues were weighed and precisely recorded. Subsequently, the extracted tissues were divided into two parts, one of the two parts was sub-packed into an EP tube, immediately rapidly frozen in liquid nitrogen and then transferred to a −80° C. refrigerator for cryopreservation; and the other part was sub-packed into an EP tube containing 4% paraformaldehyde to be fixed for making pathological tissue sections later.\n(§1) During the subsequent test, in order to observe pathological morphologies of animal tissues, paraffin sections of mouse tissues were made and subjected to HE staining, immunohistochemical staining and immunofluorescence staining. Also, mouse pancreatic tail tissues in a valeric acid intervention group and a control group were taken out from the −80° C. refrigerator and underwent TMT labeled quantitative proteome detection of the animal tissues, and differential proteins were subjected to a Western Blot test and a real-time fluorescence quantitative polymerase chain reaction (QRT PCR) test for the animal tissues to verify test results."}, "[2]": {"test_system": "PI3k/Pdpk1/Akt insulin metabolic pathway", "test": "WB and ELISA of key proteins of PI3k/Pdpk1/Akt insulin metabolic pathway in mouse pancreatic tissues", "assay_type": "in vivo, mice", "details": "p value <0.05", "procedure": "as §1"}, "[3]": {"test": "Serum tumor markers CEA and CA19-9 by ECLIA in high-fat fed mice", "assay_type": "in vivo", "from_the_text": "Finally, to detect whether tumor invasion was caused during intervention or not, contents of a carbohydrate antigen (CA 19-9) and a carcinoembryonic antigen (CEA) in mouse serum were detected and compared by using automatic electrochemiluminescence immunoassay system Cobas® 8000 (Roche, USA) and electrochemiluminescence immunoassay (ECLIA)."}, "[4]": {"test_system": "db/db mouse islet tissues", "test": "Histopathology of pancreatic tissues of db/db mice (HE, immunofluorescence)", "assay_type": "in vivo", "procedure": "During the subsequent test, in order to observe pathological morphologies of animal tissues, paraffin sections of mouse tissues were made and subjected to HE staining, immunohistochemical staining and immunofluorescence staining. […] Histopathological examination is also performed on the pancreatic tissues of db/db mice."}, "[5]": {"test_system": "3-phosphoinositide dependent protein kinase 1 (Pdpk1)", "test": "TMT proteomic detection of pancreatic tissues, HFD+VA vs HFD+PBS", "assay_type": "in vivo, mice", "details": "TMT proteomics", "procedure": "as §1\nThrough functional annotation of GO and KEGG databases, metabolic pathways such as energy and glycolipid metabolism, glycogen synthesis, redox and phosphorylation are enriched (FIG. 19)."}, "[6]": {"test_system": "Leptin receptor gene deficient db/db mice", "test": "Type 2 diabetes model db/db mice: food intake, body weight, blood glucose-related indexes", "assay_type": "in vivo", "procedure": "The following drugs are taken as comparative examples: • 1. Comparative example where an existing drug serves as a positive control • (1) High-fat fed C57BL6/J mice • Sodium butyrate gavage intervention group: 75.0 mg/kg • (2) Type 2 diabetes model db/db mice • Sodium butyrate gavage intervention group: 75.0 mg/kg • Harmine gavage intervention group: 10.0 mg/kg • Metformin gavage intervention group: 100.0 mg/kg • (3) Cell line of mouse insulinoma islet β cells (Beta-TC-6) • Sodium butyrate intervention group: 1.0 mmol/L • Harmine intervention group: 10.0 μmmol/L • (4) Mouse islet β primary cell • Sodium butyrate intervention group: 1.0 mmol/L • Harmine intervention group: 10.0 μmmol/L • 2. A control test is taken as a comparative example • (1) High-fat fed C57BL6/J mice • Ordinary feed feeding group, and high-fat feed PBS gavage group • (2) Type 2 diabetes model db/db mice • Control feeding group and PBS gavage group • (3) Cell line of mouse insulinoma islet β cells (Beta-TC-6) • Blank control group, and palmitic acid (PA) intervention negative control group • (4) Mouse islet β primary cell • Blank control group, and PA intervention negative control group • Results are as follows:\n(II) In the animal test, the therapeutic effect of the valeric acid on diabetes is observed by using Leptin receptor gene deficient db/db mice (purchased from Nanjing Junke Biotechnology Co., Ltd.) as test subjects."}}, "data": [{"compound": "CCCCC(=O)O", "note": "[valeric acid]", "values": [{"measurement": "proportion of ERK positive areas", "setting": "[1]; ERK staining of paraffin sections", "value": "increased significantly"}, {"measurement": "islet areas", "setting": "[1]; HE staining, HF-V group", "value": "obviously enlarged"}, {"measurement": "number of islets", "setting": "[1]; HE staining, HF-V group", "value": "increased"}, {"measurement": "number of β cells in the islet", "setting": "[1]; HE staining, HF-V group", "value": "significantly increased"}, {"measurement": "number of Ki67 stained nuclei in the pancreas", "setting": "[1]; insulin/Ki67/DAPI immunofluorescence", "value": "increased significantly"}, {"measurement": "secretion proportion of the insulin in the pancreas", "setting": "[1]; insulin/glucagon/DAPI immunofluorescence", "value": "increased significantly"}, {"measurement": "expression level of Akt", "setting": "[2]", "value": "significantly increased"}, {"measurement": "expression level of PIPS", "setting": "[2]", "value": "significantly increased"}, {"measurement": "expression level of Pdpk1", "setting": "[2]", "value": "significantly increased"}, {"measurement": "expression level of mTOR", "setting": "[2]", "value": "significantly increased"}, {"measurement": "expression level of p-Akt", "setting": "[2]", "value": "significantly increased"}, {"measurement": "expression level of p-mTOR", "setting": "[2]", "value": "significantly increased"}, {"measurement": "CA19-9 in mouse serum", "setting": "[3]; HF+VA mouse serum", "value": "< 0.600", "unit": "U/mL"}, {"measurement": "CEA in mouse serum", "setting": "[3]; HF+VA mouse serum", "value": "< 0.200", "unit": "U/mL"}, {"measurement": "cancer invasion", "setting": "[3]; from CEA and CA19-9 serum markers", "value": "does not occur"}, {"measurement": "islet area", "setting": "[4]; HE staining", "value": "increased significantly"}, {"measurement": "islet cells", "setting": "[4]; HE staining", "value": "increased significantly"}, {"measurement": "proportion of Ki67 (+)", "setting": "[4]; Ki67/insulin staining", "value": "increased significantly"}, {"measurement": "ratio of the insulin to glucagon", "setting": "[4]; immunofluorescence", "value": "increased significantly"}, {"measurement": "expression level of Pdpk1 in the mouse pancreatic tissues", "setting": "[5]", "value": "significantly increased"}, {"measurement": "area under the OGTT curve", "setting": "[6]; compared with metformin and Harmine groups", "value": "smallest"}, {"measurement": "decrease of fasting blood glucose", "setting": "[6]; compared with the PBS control group", "value": "~10", "unit": "mmol/L"}, {"measurement": "insulin secretion", "setting": "[6]; comparison among groups / vs PBS control group", "value": "best"}, {"measurement": "weights", "setting": "[6]; vs PBS control group", "value": "decreased significantly"}]}]}
